For one compound, inhibition results are on record in publication PMC7072979, “Doxorubicin Inhibits Phosphatidylserine Decarboxylase and Modifies Mitochondrial Membrane Composition in HeLa Cells” (International Journal of Molecular Sciences, 2020).

In this experiment the target is T1, phosphatidylserine decarboxylase (PSD) (Homo sapiens, UniProt Q9UG56).
T1 construct: gene PISD; native endogenous enzyme in mitochondria isolated from HeLa cells (not purified); proenzyme self-cleaved into alpha and beta subunits
T1 sequence (Q9UG56 53-377): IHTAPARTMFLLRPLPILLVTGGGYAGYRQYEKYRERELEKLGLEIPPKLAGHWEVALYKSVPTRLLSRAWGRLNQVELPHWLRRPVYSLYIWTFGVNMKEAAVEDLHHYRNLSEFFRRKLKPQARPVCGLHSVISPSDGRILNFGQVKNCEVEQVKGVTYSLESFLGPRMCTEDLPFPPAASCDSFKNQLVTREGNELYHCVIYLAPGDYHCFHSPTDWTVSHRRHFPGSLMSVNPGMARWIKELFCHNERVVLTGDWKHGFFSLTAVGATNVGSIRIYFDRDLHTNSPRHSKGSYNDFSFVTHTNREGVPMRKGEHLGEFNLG
T1 sequence (Q9UG56 378-409): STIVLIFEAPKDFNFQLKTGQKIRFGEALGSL
Kind of experiment: PE-NBD formation from PS-NBD, HPTLC fluorescence scan, isolated mitochondria. The class given is biochemical.

In the case of `COc1cccc2c1C(=O)c1c(O)c3c(c(O)c1C2=O)C[C@@](O)(C(=O)CO)C[C@@H]3O[C@H]1C[C@H](N)[C@H](O)[C@H](C)O1` [Doxorubicin], testing at 5 µM gave an inhibition of 48%.
